These results are taken from patent US8134015B2, “Compound inhibiting in vivo phosphorous transport and medicine containing the same” (Kyowa Hakko Kirin Co., Ltd., priority 2003, dated 2012).

Some results are limits rather than exact numbers.

The target in one experiment is T1, rat NaPi-2b (Rattus norvegicus, UniProt Q9JJ09).
T1 construct: expressed in transfected cells; host or cells: Xenopus oocytes injected with cRNA
T1 sequence (Q9JJ09 1-695): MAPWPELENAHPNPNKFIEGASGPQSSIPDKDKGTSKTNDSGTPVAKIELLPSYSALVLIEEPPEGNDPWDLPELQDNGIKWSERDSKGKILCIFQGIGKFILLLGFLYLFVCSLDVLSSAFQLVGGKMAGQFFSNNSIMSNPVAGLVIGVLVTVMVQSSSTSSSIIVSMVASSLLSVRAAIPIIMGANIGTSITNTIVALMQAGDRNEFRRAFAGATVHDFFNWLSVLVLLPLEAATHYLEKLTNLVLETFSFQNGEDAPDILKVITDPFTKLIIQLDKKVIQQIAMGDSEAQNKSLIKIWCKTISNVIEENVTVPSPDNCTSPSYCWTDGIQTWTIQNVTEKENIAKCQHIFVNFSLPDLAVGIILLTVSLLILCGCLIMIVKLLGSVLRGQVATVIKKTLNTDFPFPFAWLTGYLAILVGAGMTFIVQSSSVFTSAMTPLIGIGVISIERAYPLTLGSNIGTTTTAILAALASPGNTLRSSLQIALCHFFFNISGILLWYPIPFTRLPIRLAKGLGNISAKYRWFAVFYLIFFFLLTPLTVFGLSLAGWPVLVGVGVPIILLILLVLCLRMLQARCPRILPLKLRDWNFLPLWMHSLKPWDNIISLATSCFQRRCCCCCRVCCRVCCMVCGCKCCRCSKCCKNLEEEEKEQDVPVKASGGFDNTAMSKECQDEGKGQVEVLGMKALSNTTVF
Kind of experiment: Sodium-dependent phosphate uptake of Xenopus oocytes which expressed NaPi-2b (32P). In kind it is cell-based. Conditions: Xenopus oocytes expressing rat NaPi-2b, 32P radioactive phosphorus; read-out: IC50 (phosphate uptake inhibitory activity). The procedure, abridged:
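Read-out is 32P phosphate uptake into Xenopus oocytes expressing rat intestinal NaPi-2b (cRNA injection, 2-day culture). Inhibition at 300 μM and 100 μM was derived from a single inhibition curve and given as percent.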
The IC50 is the concentration needed to halve the response being measured. As to `O=C(Nc1ccc(Cl)cc1C(=O)N/N=C/c1cccc(F)c1)c1cccc(CSCc2ccco2)c1` [Compound 680, N-[4-Chloro-2-(3-fluoro-benzylidene-hydrazinocarbonyl)-phenyl]-3-(furan-2-ylmethylsulfanylmethyl)-benzamide], the IC50 came out at 4.04 µM.
Regarding `CCN(CC)CCN(C)Cc1cccc(C(=O)Nc2ccc(N3CCOCC3)cc2C(=O)N/N=C/c2ccc(Cl)c(C(F)(F)F)c2)c1` [Compound 1075, N-[2-(4-Chloro-3-trifluoromethyl-benzylidene-hydrazinocarbonyl)-4-morpholin-4-yl-phenyl]-3-{[(2-diethylamino-ethyl)-methyl-amino]-methyl}-benzamide], the IC50 was found to be 1.34 µM.
Same read-out and setting: the value for `O=C(Nc1ccc(N2CCCCC2)cc1C(=O)N/N=C/c1ccc(Cl)c(C(F)(F)F)c1)c1cccc(CN2CCN(CCO)CC2)c1` [Compound 868, N-[2-(4-Chloro-3-trifluoromethyl-benzylidene-hydrazinocarbonyl)-4-piperidin-1-yl-phenyl]-3-[4-(2-hydroxy-ethyl)-piperazin-1-ylmethyl]-benzamide] was below 0.3 µM; that for `COc1ccc(/C=N/NC(=O)c2cc(Cl)ccc2NC(=O)c2ccc(CN(C)CCO)cc2)cc1` [Compound 419, N-[4-Chloro-2-(4-methoxy-benzylidene-hydrazinocarbonyl)-phenyl]-4-{[(2-hydroxy-ethyl)-methyl-amino]-methyl}-benzamide] was 9.2 µM; that for `O=C(Nc1ccc(OCCCCF)cc1C(=O)N/N=C/c1cccc(F)c1)c1cccc(CSCCO)c1` [Compound 1051, N-[2-(3-Fluoro-benzylidene-hydrazinocarbonyl)-4-(4-fluoro-butoxy)-phenyl]-3-(2-hydroxy-ethylsulfanylmethyl)-benzamide] was 1.16 µM.
Still for that read-out and setting: under `CCN(CC)CCN(C)Cc1cccc(C(=O)Nc2ccc(OCCCN3CCCCC3)cc2C(=O)N/N=C/c2ccc(Cl)c(C(F)(F)F)c2)c1` [Compound 1038, N-[2-(4-Chloro-3-trifluoromethyl-benzylidene-hydrazinocarbonyl)-4-(3-piperidin-1-yl-propoxy)-phenyl]-3-{[(2-diethylamino-ethyl)-methyl-amino]-methyl}-benzamide] stands 3.35 µM; under `CCc1ccc(C(=O)Nc2ccc(Br)cc2C(=O)N/N=C/c2cccc(C)c2)cc1` [Compound 180, N-[4-Bromo-2-(3-methyl-benzylidene-hydrazinocarbonyl)-phenyl]-4-ethyl-benzamide], below 3 µM.
Turning to `Cc1ccc(/C=N/NC(=O)c2cc(Cl)ccc2NC(=O)c2cccc(CN(CCO)CCO)c2)cc1C` [Compound 406, 3-{[Bis-(2-hydroxy-ethyl)-amino]-methyl}-N-[4-chloro-2-(3,4-dimethyl-benzylidene-hydrazinocarbonyl)-phenyl]-benzamide], the IC50 was 0.88 µM.
Still for that read-out and setting: the value for `CCN(CC)CCN(C)Cc1cccc(C(=O)Nc2ccc(OCC3CCCCC3)cc2C(=O)N/N=C/c2cccc(F)c2)c1` [Compound 1046, N-[4-Cyclohexylmethoxy-2-(3-fluoro-benzylidene-hydrazinocarbonyl)-phenyl]-3-{[(2-diethylamino-ethyl)-methyl-amino]-methyl}-benzamide] was below 1 µM; that for `COc1ccc(/C=N/NC(=O)c2cc(Cl)ccc2NC(=O)c2cccc(CN(CCO)CCO)c2)cc1` [Compound 409, 3-{[Bis-(2-hydroxy-ethyl)-amino]-methyl}-N-[4-chloro-2-(4-methoxy-benzylidene-hydrazinocarbonyl)-phenyl]-benzamide] was 2.52 µM; that for `CCN(CC)CCN(CCN(CC)CC)Cc1cccc(C(=O)Nc2scc(C)c2C(=O)N/N=C/c2ccc(Cl)c(C(F)(F)F)c2)c1` [Compound 842, 3-{[Bis-(2-diethylamino-ethyl)-amino]-methyl}-N-[3-(4-chloro-3-trifluoromethyl-benzylidene-hydrazinocarbonyl)-4-methyl-thiophen-2-yl]-benzamide] was 3.22 µM.
As to `Cc1ccc(/C=N/NC(=O)c2cc(Br)ccc2NC(=O)c2ccc(CN(CC(C)O)CC(C)O)cc2)cc1` (stereo not drawn) [Compound 304, 4-{[Bis-(2-hydroxy-propyl)-amino]-methyl}-N-[4-bromo-2-(4-methyl-benzylidene-hydrazinocarbonyl)-phenyl]-benzamide], the IC50 is 1.23 µM.
On to `CCSCCNCc1ccc(C(=O)Nc2ccc(Br)cc2C(=O)N/N=C/c2cccc(F)c2)cc1` [Compound 768, N-[4-Bromo-2-(3-fluoro-benzylidene-hydrazinocarbonyl)-phenyl]-4-[(2-ethylsulfanyl-ethylamino)-methyl]-benzamide], for which the IC50 came to 10.6 µM.
Same read-out and setting: the value for `COc1ccc(/C=N/NC(=O)c2cc(N3CCOCC3)ccc2NC(=O)c2cccc(CSCCO)c2)cc1` [Compound 1066, 3-(2-Hydroxy-ethylsulfanylmethyl)-N-[2-(4-methoxy-benzylidene-hydrazinocarbonyl)-4-morpholin-4-yl-phenyl]-benzamide] was 2.69 µM.
With `CCN(CC)CCN(C)Cc1cccc(C(=O)Nc2ccc(I)cc2C(=O)N/N=C/c2cccc(OC)c2)c1` [Compound 478, 3-{[(2-Diethylamino-ethyl)-methyl-amino]-methyl}-N-[4-iodo-2-(3-methoxy-benzylidene-hydrazinocarbonyl)-phenyl]-benzamide], the IC50 is below 3 µM.
On the same count and under the same terms, the value for `CC(O)CN(Cc1ccc(C(=O)Nc2ccc(Br)cc2C(=O)N/N=C/c2cccc(F)c2)cc1)CC(C)O` (stereo not drawn) [Compound 720, 4-{[Bis-(2-hydroxy-propyl)-amino]-methyl}-N-[4-bromo-2-(3-fluoro-benzylidene-hydrazinocarbonyl)-phenyl]-benzamide] was 3.51 µM.

The same experiment, now with this note: phosphate uptake, oocytes expressing rat NaPi-2b; 300 μM, determined from inhibition curve.
For orientation: inhibition means the relative decrease from the control value, in per cent. As to `O=C(Nc1ccc(Cl)cc1C(=O)N/N=C/c1cccc(F)c1)c1cccc(CN(CCO)CCO)c1` [Compound 549, 3-{[Bis-(2-hydroxy-ethyl)-amino]-methyl}-N-[4-chloro-2-(3-fluoro-benzylidene-hydrazinocarbonyl)-phenyl]-benzamide], at 300 µM the inhibition was 85.1%.
For the compound `COc1ccc(C(=O)Nc2ccccc2C(=O)N/N=C/c2ccc([N+](=O)[O-])cc2)cc1OC` [Compound 240, 3,4-Dimethoxy-N-[2-(4-nitro-benzylidene-hydrazinocarbonyl)-phenyl]-benzamide], 300 µM produced 37.9% inhibition.
In turn, `O=c1c2cc(Cl)ccc2nc(-c2cccc(CSCCS(=O)(=O)O)c2)n1/N=C/c1ccc(Cl)c(C(F)(F)F)c1` [Compound 703, 2-(3-{6-Chloro-3-[(4-chloro-3-trifluoromethyl-benzylidene)-amino]-4-oxo-3,4-dihydro-quinazolin-2-yl}-benzylsulfanyl)-ethanesulfonic acid] returned an inhibition at 300 µM of 57.9%.
The same measure, in the same setting: the value for `COc1ccc(C(=O)Nc2cc(OC)c(OC)cc2C(=O)N/N=C/c2ccccc2C)cc1OC` [Compound 230, N-[4,5-Dimethoxy-2-(2-methyl-benzylidene-hydrazinocarbonyl)-phenyl]-3,4-dimethoxy-benzamide] was 50.4%; that for `Cc1ccc(/C=N/NC(=O)c2scc(C)c2NC(=O)c2cccc(CSCCCO)c2)cc1` [Compound 526, 3-(3-Hydroxy-propylsulfanylmethyl)-N-[4-methyl-2-(4-methyl-benzylidene-hydrazinocarbonyl)-thiophen-3-yl]-benzamide] was 40.2%.
